From patent publication US20150159167A1, “Plants Tolerant to HPPD Inhibitor Herbicides” (Bayer CropScience AG, priority 2009, published 2015)

What was measured:
wild-type soybean shoots = assay: Soybean shoot greening under isoxaflutole selection; format: in vivo; details: same amount of isoxaflutole
Source text: (§1) Soybean transformation is achieved using methods well known in the art, such as the one described using the Agrobacterium tumefaciens mediated transformation soybean half-seed explants described by Paz et al. (2006, Plant cell Rep. 25:206). Transformants were identified using Isoxaflutole as selection marker. The appearance of green shoots was observed, and documented as an indicator of tolerance to the herbicide isoxaflutole. […] Tolerant green shoots were transferred to rooting media or grafted. Rooted plantlets are transferred to the glasshouse after an acclimation period.

[1] = tested on: transgenic soybean shoots (FMP38); assay: as above; format: in vivo; details: isoxaflutole as selection marker
Source text: as §1

[2] = tested on: Synechococcus sp. HPPD "SEQ ID No. 5"; assay: HPPD activity in presence of HPPD inhibitors (pI50, % inhibition); format: biochemical; details: for pI50: 2 mM HPP, 3 minutes incubation; for percentage of inhibition: 5.0 × 10^−6 M inhibitor, compared to activity in absence of inhibitor
Source text: (§2) In this content, pI50-value means the log value of the concentration of inhibitor necessary to inhibit 50% of the enzyme activity in molar concentration.

[3] = molecular target: T1, Arabidopsis thaliana HPPD "SEQ ID No. 10" (Arabidopsis thaliana, UniProt P93836); assay: as above; format: biochemical
T1 construct: Preparation of Synechococcus sp; Ala + 6xHis (N); made in house; host or cells: E. coli K-12 BL21 (pQE30-AtHPPD)
T1 sequence (P93836 with tags, fused parts or gaps): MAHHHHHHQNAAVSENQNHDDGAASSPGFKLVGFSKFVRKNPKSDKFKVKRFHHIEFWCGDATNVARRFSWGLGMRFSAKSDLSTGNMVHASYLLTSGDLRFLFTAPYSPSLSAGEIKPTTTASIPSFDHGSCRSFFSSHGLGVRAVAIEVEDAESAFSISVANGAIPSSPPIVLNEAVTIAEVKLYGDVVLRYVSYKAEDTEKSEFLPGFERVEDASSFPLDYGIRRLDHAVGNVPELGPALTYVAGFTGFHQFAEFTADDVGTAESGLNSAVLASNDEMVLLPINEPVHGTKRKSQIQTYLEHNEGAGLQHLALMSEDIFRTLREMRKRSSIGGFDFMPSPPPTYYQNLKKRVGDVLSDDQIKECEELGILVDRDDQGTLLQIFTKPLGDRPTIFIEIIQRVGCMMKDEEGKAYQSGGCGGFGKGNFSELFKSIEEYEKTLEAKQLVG
Source text: as §2

[4] = tested on: Synechococcus sp. HPPD "SEQ ID No. 5"; assay: HPLC assay of HPPD activity, in vitro kinetic properties; format: biochemical
Description: Km, Vmax, and kcat values for different HPPD enzyme preparations and Ki, K1=Kon, and K−1=Koff for different HPPD inhibitors were determined using a HPLC assay for measurements of HPPD activity. […] All assays were started by the addition of HPPD enzyme to the assay mixture and stopped at a series of times between 0 and 240 s by addition of 200 μl of the reaction mixture to reaction assay tubes containing 20 μl 10% perchloric acid. Precipitated protein was pelleted by a 5 minute centrifugation at 10,000 g. […] A standard set of concentrations of HGA were used to provide a standard curve in order to calibrate the 292 nm absorbance of the HGA peak versus HGA concentration.
For Km and Vmax value determinations the initial rates of the HPPD reaction at different substrate concentrations were determined from plots of HGA formed versus time and fitted to the Michaelis-Menten equation for unireactant enzymes using the ID Business Solutions Ltd. (idbs.com) XLfit software suite. For the determination of Ki, K1=Kon, and K=−1=Koff values the time-courses of the HPPD reaction at different inhibitor concentrations were fitted to the equations for Mechanism A, competitive inhibition, for tight-binding inhibitors (Cha, S. (1975) Tight-binding inhibitors-I. Kinetic behaviour. Biochemical Pharmacology 24, 2177-2185) using the ID Business Solutions Ltd. XLfit software suite
(§3) In below given table 1, “Km” (Michaelis-Menten constant) means the kinetic parameter that is used to characterise an enzyme, and it is defined as the concentration of substrate that permits half maximal rate of the reaction. Km is further defined as the substrate concentration at which the reaction rate reaches half of its maximum value (Vmax/2) where Vmax has the meaning of being the maximum velocity of the reaction.
(§4) Kon=K1 equals the association rate constant of the […] binding and Koff=K−1 equals the rate constant of the enzyme-inhibitor complex dissociation. Ki defines the inhibition constant.

[5] = molecular target: T1, Arabidopsis thaliana HPPD "SEQ ID No. 10"; assay: as above; format: biochemical; details: substrate HPP varied between 10 and 400 μM
Description: Km, Vmax, and kcat values for different HPPD enzyme preparations and Ki, K1=Kon, and K−1=Koff for different HPPD inhibitors were determined using a HPLC assay for measurements of HPPD activity. […] All assays were started by the addition of HPPD enzyme to the assay mixture and stopped at a series of times between 0 and 240 s by addition of 200 μl of the reaction mixture to reaction assay tubes containing 20 μl 10% perchloric acid. Precipitated protein was pelleted by a 5 minute centrifugation at 10,000 g.
For Km and Vmax value determinations the initial rates of the HPPD reaction at different substrate concentrations were determined from plots of HGA formed versus time and fitted to the Michaelis-Menten equation for unireactant enzymes using the ID Business Solutions Ltd. (idbs.com) XLfit software suite.
as §3, §4

[6] = tested on: T1 tobacco plants carrying FMP38e; assay: Glasshouse response to bicyclopyrone, injury classes; format: in vivo, Nicotiana tabacum; details: 100 g AI/ha, 7 DAT
Source text: (§5) Seeds of wild type tobacco plants and T1 tobacco plants carrying the gene from Synechococcus sp. FMP38e coding for HPPD were sown on MS media (Murashige and Skoog 1964) supplemented with […] kanamycin. After 4 weeks, rooted green plantlets were transferred to soil and grown for 3 weeks in the glasshouse as described above then sprayed with a mixture containing bicyclopyrone (100 g AI/ha), ammonium sulfate and methyl ester raps oil. The plants were classified in two categories based on the phenotype developed in response to the herbicide seven days after the treatment. […] In this case, only plants containing at least one T-DNA were exposed to the herbicidal treatment.

wild type tobacco plants = assay: as above; format: in vivo, Nicotiana tabacum; details: 100 g AI/ha, 7 DAT; line WT
Source text: as §5

[7] = substrate HPP varied between 10 and 400 μM

In the case of `CS(=O)(=O)c1cc(C(F)(F)F)ccc1C(=O)c1cnoc1C1CC1` [Isoxaflutole, (5-cyclopropyl-4-isoxazolyl)[2-(methylsulfonyl)-4-(trifluoromethyl)phenyl]methanone], the bleaching of shoots (wild-type soybean shoots) is reported as “entirely bleached” and the “transgenic tested shoots showing normal greening” value [1] is reported as 0.6%.

Compound `CS(=O)(=O)c1ccc(C(=O)C2C(=O)CCCC2=O)c([N+](=O)[O-])c1` [Mesotrione, 2-[4-(methylsulfonyl)-2-nitrobenzoyl]-1,3-cyclohexanedione] has a pI50 [2] of 5.4 and a percentage of inhibition [2] of 47%.

`Cc1nn(C)c(O)c1C(=O)c1ccc(C(F)(F)F)cc1S(C)(=O)=O` [Pyrasulfotole] was tested, and the pI50 ([3]; 2 mM HPP, 3 minutes incubation) was 5.4, the percentage of inhibition ([3]; 5.0 × 10^−6 M inhibitor, compared to activity in absence of inhibitor) was 69% and the pI50 [2] was 4.7. It also gave a percentage of inhibition [2] of 16%.

Compound `O=C(O)C(=O)Cc1ccc(O)cc1` [HPP, para-hydroxyphenylpyruvate] has a Km [4, 7] of 5.1 µM, a Vmax [4, 7] of 1.2 µM and a Km [5] of 6.3 µM. The Vmax [5] was 1.2 µM.

`CS(=O)(=O)c1ccc(C(=O)C2C(=O)CCCC2=O)c(Cl)c1COCC1CCCO1` (stereo not drawn) [Tefuryltrione, 2-[2-chloro-4-(methylsulfonyl)-3-[[(tetrahydro-2-furanyl)methoxy]methyl]benzoyl]-1,3-cyclohexanedione] was tested, and the pI50 [2] was 5.6 and the percentage of inhibition [2] was 72%.

`CS(=O)(=O)c1cc(C(F)(F)F)ccc1C(=O)C(C#N)C(=O)C1CC1` (stereo not drawn) [Diketonitrile, 2-cyano-3-cyclopropyl-1-(2-methylsulphonyl-4-trifluoromethylphenyl)-propane-1,3-dione] was tested, and the Ki ([4]; 2 mM HPP) was 12 µM, the pI50 [2] was 5.5 and the percentage of inhibition [2] was 62%.

For `COCCOCc1nc(C(F)(F)F)ccc1C(=O)C1=C(O)C2CCC(C2)C1=O` (stereo not drawn) [Bicyclopyrone, 4-hydroxy-3-[[2-[(2-methoxyethoxy)methyl]-6-(trifluoromethyl)-3-pyridinyl]carbonyl]bicyclo[3.2.1]oct-3-en-2-one], the “% of tolerant plant” value ([6]; line 34) was 17%, the “Class I (injury: 0-30%)” value ([6]; line 34) was 59 and the “Class II (injury: 31-100%)” value ([6]; line 34) was 6. The “% of tolerant plant” value ([6]; line 39) was 46%, the “Class I (injury: 0-30%)” value ([6]; line 39) was 100 and the “Class II (injury: 31-100%)” value ([6]; line 39) was 48. The “% of tolerant plant” value ([6]; line 197) was 15%, the “Class I (injury: 0-30%)” value ([6]; line 197) was 89 and the “Class II (injury: 31-100%)” value ([6]; line 197) was 15. The “% of tolerant plant” value (wild type tobacco plants) was 0%, the “Class I (injury: 0-30%)” value (wild type tobacco plants) was 0 and the “Class II (injury: 31-100%)” value (wild type tobacco plants) was 12. For the same compound, the pI50 [2] was 5.0 and the percentage of inhibition [2] was 19%.

In the case of `CS(=O)(=O)c1ccc(C(=O)C2C(=O)CCCC2=O)c(Cl)c1` [Sulcotrione, 2-[2-chloro-4-(methylsulfonyl)benzoyl]-1,3-cyclohexanedione], the percentage of inhibition [2] is reported as 19%.

`Cc1ccc(C(=O)COc2c(C(=O)c3ccc(Cl)c(C)c3Cl)c(C)nn2C)cc1` [Benzofenap] gave a percentage of inhibition [2] of 31%.
